Reference: patent US20240174618A1, “SUBSTITUTED (2-HETEROARYLOXYPHENYL)SULFONATES, SALTS THEREOF AND THEIR USE AS HERBICIDAL AGENTS” (Bayer Aktiengesellschaft, priority 2021, published 2024)

What was measured:
Format in all cases: in vivo
Lolium rigidum (LOLRI) [1] = assay: C. Herbicidal pre-emergence efficacy, LOLRI; conditions: 320 g/ha, scored after about 3 weeks
Text: (§1) Seeds of monocotyledonous and dicotyledonous weed plants and crop plants were placed in plastic or organic planting pots and covered with soil. The compounds of the invention, formulated in the form of wettable powders (WP) or as emulsion concentrates (EC), were then applied to the surface of the covering soil as aqueous suspension or emulsion with addition of 0.5% additive at a water application rate equivalent to 600 l/ha (converted). After the treatment, the pots were placed in a greenhouse and kept under good growth conditions for the test plants. After about 3 weeks, the efficacy of the preparations was scored visually in comparison with untreated controls as percentages. For example, • 100% efficacy=plants have died, • 0% efficacy=like untreated control plants.
(§2) Tables C1a to C14b below show the effects of selected compounds of the general formula (I) according to table 1 on various harmful plants at an application rate corresponding to 320 g/ha or less, which were obtained by the experimental procedure mentioned above.

Viola tricolor (VIOTR) [2] = assay: E. Herbicidal post-emergence efficacy, VIOTR
Experimental: (§3) Seeds of monocotyledonous and dicotyledonous weeds and crop plants were placed in sandy loam in plastic or organic planting pots, covered with soil and cultivated in a greenhouse under controlled growth conditions. 2 to 3 weeks after sowing, the test plants were treated at the one-leaf stage. The compounds of the invention, formulated in the form of wettable powders (WP) or as emulsion concentrates (EC), were then sprayed onto the green parts of the plants as aqueous suspension or emulsion with addition of 0.5% additive at a water application rate of 600 l/ha (converted). After the test plants had been kept in the greenhouse under optimum growth conditions for about 3 weeks, the activity of the preparations was rated visually in comparison to untreated controls.
(§4) For example, • 100% efficacy=plants have died, • 0% action=like untreated control plants.
(§5) Tables E1a to E12b below show the effects of selected compounds of the general formula (I) according to table 1 on various harmful plants at an application rate corresponding to 320 g/ha or less, which were obtained by the experimental procedure mentioned above.

Lolium rigidum (LOLRI) [3] = assay: E. Herbicidal post-emergence efficacy, LOLRI; conditions: application rate 320 g/ha
Experimental: as §3, §4, §5

Setaria viridis (SETVI) [4] = assay: E. Herbicidal post-emergence efficacy, SETVI; conditions: application rate 320 g/ha
Experimental: as §3, §4, §5

[5] = test system: Alopecurus myosuroides (ALOMY); assay: E. Herbicidal post-emergence efficacy, ALOMY; conditions: application rate 320 g/ha
Experimental: as §3, §4, §5

[6] = test system: Matricaria inodora (MATIN); assay: C. Herbicidal pre-emergence efficacy, MATIN; conditions: 320 g/ha, scored after about 3 weeks
Text: as §1, §2

[7] = test system: Echinochloa crus-galli (ECHCG); assay: C. Herbicidal pre-emergence efficacy, ECHCG; conditions: scored after about 3 weeks
Text: as §1, §2

[8] = test system: Polygonum convolvulus (POLCO); assay: C. Herbicidal pre-emergence efficacy, POLCO; conditions: scored after about 3 weeks
Text: as §1, §2

Oryza sativa (ORYSA) = assay: D. Pre-emergence effect on useful plants, ORYSA; conditions: useful plant, application rate 80 g/ha
Text: as §1
(§6) Tables D1a to D5b below show the effects of selected compounds of the general formula (I) according to table 1 on various useful plants at an application rate corresponding to 320 g/ha or less, which were obtained by the experimental procedure mentioned above.

Avena fatua (AVEFA) = assay: C. Herbicidal pre-emergence efficacy, AVEFA; conditions: 320 g/ha, scored after about 3 weeks
Text: as §1, §2

[9] = test system: Amaranthus retroflexus (AMARE); assay: E. Herbicidal post-emergence efficacy, AMARE
Experimental: as §3, §4, §5

[10] = test system: Polygonum convolvulus (POLCO); assay: E. Herbicidal post-emergence efficacy, POLCO; conditions: application rate 320 g/ha
Experimental: as §3, §4, §5

[11] = test system: Alopecurus myosuroides (ALOMY); assay: C. Herbicidal pre-emergence efficacy, ALOMY; conditions: 320 g/ha, scored after about 3 weeks
Text: as §1, §2

[12] = test system: Abutilon theophrasti (ABUTH); assay: E. Herbicidal post-emergence efficacy, ABUTH
Experimental: as §3, §4, §5

Zea mays (ZEAMX) = assay: F. Post-emergence effect on useful plants, ZEAMX; conditions: useful plant, application rate 80 g/ha
Experimental: as §3, §4
(§7) Tables F1a to F4 below show the effects of selected compounds of the general formula (I) according to table 1 on various useful plants at an application rate corresponding to 320 g/ha or less, which were obtained by the experimental procedure mentioned above.

Glycine max (GLXMA) = assay: D. Pre-emergence effect on useful plants, GLXMA; conditions: useful plant, application rate 80 g/ha
Text: as §1, §6

[13] = test system: Echinochloa crus-galli (ECHCG); assay: E. Herbicidal post-emergence efficacy, ECHCG
Experimental: as §3, §4, §5

[14] = test system: Amaranthus retroflexus (AMARE); assay: C. Herbicidal pre-emergence efficacy, AMARE; conditions: scored after about 3 weeks
Text: as §1, §2

Viola tricolor (VIOTR) [15] = assay: C. Herbicidal pre-emergence efficacy, VIOTR
Text: as §1, §2

[16] = test system: Abutilon theophrasti (ABUTH); assay: C. Herbicidal pre-emergence efficacy, ABUTH; conditions: scored after about 3 weeks
Text: as §1, §2

Setaria viridis (SETVI) [17] = assay: C. Herbicidal pre-emergence efficacy, SETVI; conditions: scored after about 3 weeks
Text: as §1, §2

[18] = test system: Triticum aestivum (TRZAS); assay: F. Post-emergence effect on useful plants, TRZAS; conditions: useful plant, application rate 80 g/ha
Experimental: as §3, §4, §7

Veronica persica (VERPE) [19] = assay: C. Herbicidal pre-emergence efficacy, VERPE; conditions: scored after about 3 weeks
Text: as §1, §2

Veronica persica (VERPE) [20] = assay: E. Herbicidal post-emergence efficacy, VERPE
Experimental: as §3, §4, §5

Pre-emergence efficacy against ORYSA in % (Oryza sativa (ORYSA)): 20% | Post-emergence efficacy against ZEAMX in % (Zea mays (ZEAMX)): 20% | Pre-emergence efficacy against GLXMA in % (Glycine max (GLXMA)): 20% | Post-emergence efficacy against TRZAS in % [18]: 20%
SMILES: Cc1cccc(Oc2ncc(Cl)cn2)c1OS(=O)(=O)CCCCl [Example I-11]
Pre-emergence efficacy against LOLRI (Lolium rigidum (LOLRI) [1]): 80% | Post-emergence efficacy against VIOTR in % (Viola tricolor (VIOTR) [2]; application rate 80 g/ha): 90% | Post-emergence efficacy against VIOTR in % (Viola tricolor (VIOTR) [2]; application rate 320 g/ha): 100% | Post-emergence efficacy against LOLRI in % (Lolium rigidum (LOLRI) [3]): 90% | Post-emergence efficacy against SETVI in % (Setaria viridis (SETVI) [4]): 100% | Post-emergence efficacy against ALOMY in % [5]: 90% | Pre-emergence efficacy against MATIN [6]: 80% | Pre-emergence efficacy against ECHCG ([7]; 80 g/ha): 90% | Pre-emergence efficacy against ECHCG ([7]; 320 g/ha): 100% | Pre-emergence efficacy against POLCO ([8]; 80 g/ha): 80% | Pre-emergence efficacy against POLCO ([8]; 320 g/ha): 80% | Pre-emergence efficacy against AVEFA (Avena fatua (AVEFA)): 90% | Post-emergence efficacy against AMARE in % ([9]; application rate 80 g/ha): 90% | Post-emergence efficacy against AMARE in % ([9]; application rate 320 g/ha): 100% | Post-emergence efficacy against POLCO in % [10]: 100% | Pre-emergence efficacy against ALOMY [11]: 90% | Post-emergence efficacy against ABUTH in % ([12]; application rate 80 g/ha): 80% | Post-emergence efficacy against ABUTH in % ([12]; application rate 320 g/ha): 90% | Post-emergence efficacy against ECHCG in % ([13]; application rate 80 g/ha): 90% | Post-emergence efficacy against ECHCG in % ([13]; application rate 320 g/ha): 90% | Pre-emergence efficacy against AMARE ([14]; 80 g/ha): 100% | Pre-emergence efficacy against AMARE ([14]; 320 g/ha): 100% | Pre-emergence efficacy against VIOTR in % (Viola tricolor (VIOTR) [15]; application rate 80 g/ha): 100% | Pre-emergence efficacy against VIOTR in % (Viola tricolor (VIOTR) [15]; application rate 320 g/ha): 100% | Pre-emergence efficacy against ABUTH ([16]; 80 g/ha): 90% | Pre-emergence efficacy against ABUTH ([16]; 320 g/ha): 90% | Pre-emergence efficacy against SETVI (Setaria viridis (SETVI) [17]; 80 g/ha): 90% | Pre-emergence efficacy against SETVI (Setaria viridis (SETVI) [17]; 320 g/ha): 100% | Pre-emergence efficacy against VERPE (Veronica persica (VERPE) [19]; 80 g/ha): 100% | Pre-emergence efficacy against VERPE (Veronica persica (VERPE) [19]; 320 g/ha): 100% | Post-emergence efficacy against VERPE in % (Veronica persica (VERPE) [20]; application rate 80 g/ha): 100% | Post-emergence efficacy against VERPE in % (Veronica persica (VERPE) [20]; application rate 320 g/ha): 100%
